According to the supplement of paper PMC11003180:

Legend:
Test in all cases: drug sensitivity score (DSS) from 5-dose viability curve (DSS (area-based score, 0 = no response)); higher = more sensitive (stronger viability inhibition); extreme values may be limits of the assay
[1] = system: MDCK p60AmotL2-inducible + doxycycline (p60AmotL2 expressing); details: doxycycline: 10 ng/mL; 72 h
Method in brief: (§1)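 After 72 h at 37 °C on 384-well plates pre-spotted with 528 oncology drugs at five doses (1-10,000 nM), parental and doxycycline-inducible MDCK cells were assessed; both lines had been given 10 ng/mL doxycycline in the medium before seeding at 2000 cells/well. Viability was taken from CellTiter-Glo luminescence scaled per plate to vehicle and positive controls, and drug sensitivity scores were derived from dose-response fits in the Breeze pipeline.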

[2] = system: MDCK wild-type + doxycycline; details: doxycycline: 10 ng/mL; 72 h
Method in brief: as §1

[3] = system: MDCK wild-type - doxycycline; details: doxycycline: none; 72 h
Method in brief: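 Viability of parental MDCK cells cultured without doxycycline was measured by CellTiter-Glo luminescence and scaled per plate between vehicle and positive controls. The cells had been exposed for 72 h to an oncology library of 528 drugs at five doses (1-10,000 nM). Drug sensitivity scores were calculated from dose-response curve fits in the Breeze pipeline.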

Compound	drug sensitivity score [1]	drug sensitivity score [2]	drug sensitivity score [3]
NS(=O)(=O)NCCNc1nonc1/C(=N/O)Nc1ccc(F)c(Br)c1 [Epacadostat]	0	0	0
Nc1nc2cc(-c3ccc4ncc(C(=O)N5CCOCC5)n4c3)ccc2o1 [Serabelisib]	1.3	0.1	0
CNC(=O)c1ccc(-c2cnc3ncc(Cc4ccc5ncccc5c4)n3n2)cc1F [Capmatinib]	0	0	0
NC[C@@](O)(c1ccc(Cl)cc1)c1ccc(-c2cn[nH]c2)cc1	0	0	0
COc1c(C)cnc(Cn2cnc3c(Cl)nc(N)nc32)c1C [BIIB021]	20.6	19.6	17.4
O=C(O)C(=O)O.[NH-][C@@H]1CCCC[C@H]1[NH-].[Pt+2] [Oxaliplatin]	12.3	10.2	8.1
Nc1ncnc2c1c(COc1cccc(Cl)c1)nn2C1CCOCC1	0.5	0	0
O=c1[nH]c(C2CCCN2)nc2c1oc1ccc(Cl)cc12 (stereo not given)	0	0	0
C[C@@H]1CN(Cc2ccc(F)cc2)[C@@H](C)CN1C(=O)c1cc2c(C(=O)C(=O)N(C)C)cn(C)c2cc1Cl [Talmapimod]	0	0	0
Cc1c(Cn2c(C)nc3c(C(=O)O)cc(N4CCOCC4)cc32)cccc1C(F)(F)F	0	0	0
COc1cc(C)[nH]c(=O)c1CNC(=O)c1c(C)n([C@H](C)C2CCOCC2)c2ccccc12 [CPI-360]	1.3	0.1	0
Cc1ccc(-n2nc(C(C)(C)C)cc2NC(=O)Nc2ccc(OCCN3CCOCC3)c3ccccc23)cc1 [Doramapimod]	0	0	0
COc1cc(C(=O)O)ccc1NC(=O)[C@@H]1N[C@@H](CC(C)(C)C)[C@](C#N)(c2ccc(Cl)cc2F)[C@H]1c1cccc(Cl)c1F [Idasanutlin]	16.2	12.6	8.4
CC1(C)CCC(c2ccc(Cl)cc2)=C(CN2CCN(c3ccc(C(=O)NS(=O)(=O)c4ccc(N[C@H](CCN5CCOCC5)CSc5ccccc5)c(S(=O)(=O)C(F)(F)F)c4)cc3)CC2)C1 [Navitoclax]	0	0.9	0.8
CC(C)Cn1cnc2c(N)nc3ccccc3c21 [Imiquimod]	0.3	0	0
O=C1c2c(O)ccc(O)c2C(=O)c2c(NCCNCCO)ccc(NCCNCCO)c21 [Mitoxantrone]	15.5	8.9	7.1
O=C(c1cccc(Cl)c1F)N1CCN(Cc2cccc(Nc3nccs3)n2)CC1 [MK-8745]	12.4	9.5	6.6
CC(C)c1cc(-c2n[nH]c(=O)n2-c2ccc3c(ccn3C)c2)c(O)cc1O [Ganetespib]	19.3	17.4	16.7
CCOc1ccn(-c2ccc(F)cc2)c(=O)c1C(=O)Nc1ccc(Oc2ccnc(N)c2Cl)c(F)c1	0	0	0
CO[C@@H](C)Cn1c(=O)n(C)c2cnc3ccc(-c4cncc(C(C)(C)O)c4)cc3c21	12.8	9.1	8.2
CCN(CC)CCNC(=O)c1c(C)[nH]c(/C=C2\C(=O)Nc3ccc(F)cc32)c1C [Sunitinib]	1.2	0	0
CO[C@H]1C[C@@H]2CC[C@@H](C)[C@@](O)(O2)C(=O)C(=O)N2CCCC[C@H]2C(=O)O[C@H]([C@H](C)C[C@@H]2CC[C@@H](O)[C@H](OC)C2)CC(=O)[C@H](C)/C=C(\C)[C@@H](O)[C@@H](OC)C(=O)[C@H](C)C[C@H](C)/C=C/C=C/C=C/1C [Sirolimus]	7.6	2.3	1.9
O=C(/C=C\n1cnc(-c2cc(C(F)(F)F)cc(C(F)(F)F)c2)n1)NNc1ccccn1 [Verdinexor]	10.1	10.6	9.2

Compound	drug sensitivity score [1]	drug sensitivity score [2]	drug sensitivity score [3]
COc1cc2/c(=N/c3ccc(Br)cc3F)nc[nH]c2cc1OCC1CCN(C)CC1 [Vandetanib]	4.6	0	0
Cc1nc(NC(=O)N2CCC[C@H]2C(N)=O)sc1-c1ccnc(C(C)(C)C(F)(F)F)c1 [Alpelisib]	1.6	0	0.7
COc1nc(N)nc2c1ncn2[C@@H]1O[C@H](CO)[C@@H](O)[C@@H]1O [Nelarabine]	0	0	0
CCOc1cc2ncc(C#N)c(Nc3ccc(OCc4ccccn4)c(Cl)c3)c2cc1NC(=O)/C=C/CN(C)C [Neratinib]	16.8	7.5	5.1
Cc1nn(C)c(COc2ccc(N3CCN(S(=O)(=O)N(C)C)CC3)cc2)c1-c1cccc2c(CCCOc3cccc4ccccc34)c(C(=O)O)n(CCN3CCOCC3)c12	5.3	5.3	5.1
NCC(=O)Nc1ccc(-n2nc(C(F)(F)F)cc2-c2ccc3c(ccc4ccccc43)c2)cc1	0	0	0
CN[C@@H](C)C(=O)N[C@H](C(=O)N1CCC[C@H]1c1nc(C(=O)c2ccc(F)cc2)cs1)C1CCCCC1 [NVP-LCL161]	0.5	3.1	0
C=CC(=O)Nc1cccc(Nc2nc(Nc3ccc(N4CCN(C(C)=O)CC4)cc3OC)ncc2C(F)(F)F)c1 [Rociletinib]	10.4	6.7	6.9
Cc1ccc(-c2cc(C(F)(F)F)nn2-c2ccc(S(N)(=O)=O)cc2)cc1 [Celecoxib]	0	0	0
COc1cc(Nc2ncc3c(n2)-c2ccc(Cl)cc2C(c2c(F)cccc2OC)=NC3)ccc1C(=O)O [Alisertib]	10.6	0	0
O=C(Nc1cccc(Nc2ncc(Br)c(NCCc3cnc[nH]3)n2)c1)N1CCCC1 [BX-912]	4.1	0.8	0.1
O=C(Nc1cccnc1)N1CCC(Cc2cccc(Oc3ccc(C(F)(F)F)cn3)c2)CC1 [PF-3845]	0.8	0	0
CC/C(=C(\c1ccccc1)c1ccc(OCCN(C)C)cc1)c1ccccc1 [Tamoxifen]	1	0	0
O=c1[nH]c(=O)n([C@H]2C[C@H](O)[C@@H](CO)O2)cc1F [Floxuridine]	22.7	21.7	18.2
CCC/C=C/C=C/C(=O)O[C@H]1/C(=C/C(=O)OC)C[C@H]2C[C@H]([C@@H](C)O)OC(=O)C[C@H](O)C[C@@H]3C[C@H](OC(C)=O)C(C)(C)[C@](O)(C[C@@H]4C/C(=C/C(=O)OC)C[C@H](/C=C/C(C)(C)[C@]1(O)O2)O4)O3 [Bryostatin 1]	0	0	0
O=C(NC[C@H](O)CN1CCc2ccccc2C1)c1cc(NC2COC2)ncn1	0.2	0	0
CC(C)Nc1cc(-c2c[nH]c(C(=O)N[C@H](CO)c3cccc(Cl)c3)c2)c(Cl)cn1 [Ulixertinib]	9.6	4.9	3.2
Cc1ccc(Nc2nccc(N(C)c3ccc4c(C)n(C)nc4c3)n2)cc1S(N)(=O)=O [Pazopanib]	0	0	0
CCn1c(C(=O)N(C2CC2)C2CC2)cc2c3c(ncn3C)c(Nc3cc(C)n(C)n3)nc21	0	0	0
CN(C)C(=O)c1cc2cnc(Nc3ccc(N4CCNCC4)cn3)nc2n1C1CCCC1 [Ribociclib]	1.6	0.8	0
COc1cccc2c1C(=O)c1c(O)c3c(c(O)c1C2=O)C[C@@](O)(C(=O)CO)C[C@@H]3O[C@H]1C[C@H](N)[C@@H](O)[C@H](C)O1 [Epirubicin]	11.6	10	5.9
C=C(c1ccc(C(=O)O)cc1)c1cc2c(cc1C)C(C)(C)CCC2(C)C [Bexarotene]	0	0	0.2
